Our source for the Emax, EC50 and melting point values is patent US20170066717A1, “NEW PHENYLAZETIDINECARBOXYLATE OR -CARBOXAMIDE COMPOUNDS” (INVENTIVA, priority 2014, published 2017).

One data set concerns the target T1, NURR-1/RXRα (Homo sapiens, UniProt P19793).
T1 construct: expressed in transfected cells; host or cells: Cos-7 cells
Put plainly: Transactivation test, NURR-1-Gal4/RXRα, luciferase reporter in Cos-7 cells. It is filed as cell-based. The settings on record: for Emax: COS-7, induction level relative to reference XCT0135908 at 2×10^−5 M (=100%), read-out: hNurr1_RXRaFL Emax (%); for EC50: Cos-7 cells, NURR-1-Gal4/RXRα, luciferase reporter, read-out: hNurr1_RXRaFL EC50. A general note: In a reporter assay the amount or activity of a reporter protein is the signal.

A further data set addresses T2, NURR-1/RXRγ (Homo sapiens, UniProt P48443).
T2 construct: expressed in transfected cells; host or cells: Cos-7 cells
Put plainly: Transactivation test, NURR-1-Gal4/RXRγ, luciferase reporter in Cos-7 cells. It is filed as cell-based. To be noted: for Emax: COS-7, induction level relative to reference XCT0135908 at 2×10^−5 M (=100%), read-out: hNurr1_RXRgFL Emax (%); for EC50: Cos-7 cells, NURR-1-Gal4/RXRγ, luciferase reporter, read-out: hNurr1_RXRgFL EC50.

T1 sequence (P19793 whole entry): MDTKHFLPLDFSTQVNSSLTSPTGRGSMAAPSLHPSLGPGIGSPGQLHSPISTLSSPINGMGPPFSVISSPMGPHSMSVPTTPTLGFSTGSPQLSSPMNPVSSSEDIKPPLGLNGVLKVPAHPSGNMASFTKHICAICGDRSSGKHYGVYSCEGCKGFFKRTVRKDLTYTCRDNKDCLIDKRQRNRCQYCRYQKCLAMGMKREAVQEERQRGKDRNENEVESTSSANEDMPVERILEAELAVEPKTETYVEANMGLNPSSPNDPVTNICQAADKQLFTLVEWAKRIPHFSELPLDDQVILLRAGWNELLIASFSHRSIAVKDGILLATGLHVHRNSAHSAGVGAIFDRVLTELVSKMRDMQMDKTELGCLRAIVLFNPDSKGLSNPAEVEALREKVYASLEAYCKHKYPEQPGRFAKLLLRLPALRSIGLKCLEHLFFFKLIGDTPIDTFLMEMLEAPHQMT
T1 sequence (P43354 whole entry partner): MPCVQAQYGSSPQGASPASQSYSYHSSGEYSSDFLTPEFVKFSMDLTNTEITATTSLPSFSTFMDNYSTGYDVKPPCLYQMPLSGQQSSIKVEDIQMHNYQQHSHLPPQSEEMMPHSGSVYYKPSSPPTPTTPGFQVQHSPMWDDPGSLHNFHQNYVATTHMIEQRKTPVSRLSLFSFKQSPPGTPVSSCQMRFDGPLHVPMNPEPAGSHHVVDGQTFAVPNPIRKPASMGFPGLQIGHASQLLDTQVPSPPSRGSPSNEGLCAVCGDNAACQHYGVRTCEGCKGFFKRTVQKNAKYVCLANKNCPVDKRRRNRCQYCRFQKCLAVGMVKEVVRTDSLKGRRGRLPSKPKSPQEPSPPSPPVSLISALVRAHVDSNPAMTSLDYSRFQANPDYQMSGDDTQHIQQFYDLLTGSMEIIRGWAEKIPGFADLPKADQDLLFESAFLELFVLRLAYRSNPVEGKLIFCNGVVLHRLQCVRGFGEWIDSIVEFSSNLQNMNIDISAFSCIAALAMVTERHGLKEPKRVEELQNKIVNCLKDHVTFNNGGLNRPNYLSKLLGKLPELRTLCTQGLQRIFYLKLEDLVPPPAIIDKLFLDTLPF
T1 sequence (P04386 1-147 partner limits assumed): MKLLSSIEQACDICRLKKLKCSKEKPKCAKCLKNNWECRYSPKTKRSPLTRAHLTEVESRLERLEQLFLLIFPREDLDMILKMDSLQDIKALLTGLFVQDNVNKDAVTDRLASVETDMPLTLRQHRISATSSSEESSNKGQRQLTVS
T2 sequence (P48443 whole entry): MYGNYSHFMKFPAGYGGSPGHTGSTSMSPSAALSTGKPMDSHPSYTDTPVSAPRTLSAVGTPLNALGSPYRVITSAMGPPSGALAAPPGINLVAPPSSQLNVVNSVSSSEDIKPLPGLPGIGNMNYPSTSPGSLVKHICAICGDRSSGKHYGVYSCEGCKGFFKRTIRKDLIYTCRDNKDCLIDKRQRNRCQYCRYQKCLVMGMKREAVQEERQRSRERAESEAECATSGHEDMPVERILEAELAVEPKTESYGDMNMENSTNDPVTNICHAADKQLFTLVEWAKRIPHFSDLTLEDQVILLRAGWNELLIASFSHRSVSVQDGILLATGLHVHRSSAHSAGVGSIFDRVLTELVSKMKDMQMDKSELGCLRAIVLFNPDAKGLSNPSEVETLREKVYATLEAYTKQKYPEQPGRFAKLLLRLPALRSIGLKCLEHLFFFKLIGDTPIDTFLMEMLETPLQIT
T2 sequence (P43354 whole entry partner): as the sequence (P43354 whole entry partner) above
T2 sequence (P04386 1-147 partner limits assumed): as the sequence (P04386 1-147 partner limits assumed) above

A word on the Emax: it is the greatest response seen or fitted, relative to the assay's reference. What is called EC50 is the concentration needed to bring the measured effect to its halfway point. The term melting point denotes the temperature, or range, at which the solid turns liquid. As for `CC(C)c1ccc2c(c1)OCCN2c1cccc(N2CC(C(=O)O)C2)c1` [Example 232, 1-[3-(7-isopropyl-2,3-dihydro-1,4-benzoxazin-4-yl)phenyl]azetidine-3-carboxylic acid], the melting point is 48 to 51 °C. On NURR-1/RXRα, the Emax is 97% and the EC50 is 386 nM. For the same compound, at NURR-1/RXRγ, the Emax stood at 99% and the concentration for a half-maximal effect (EC50) was 465 nM.
The corresponding values for `COc1ccc2c(c1)OC(C)(C)CN2c1cccc(N2CC(C(=O)O)C2)c1` [Example 233, 1-[3-(7-methoxy-2,2-dimethyl-3H-1,4-benzoxazin-4-yl)phenyl]azetidine-3-catboxylic aicd] are 54 to 56 °C, 97%, 1570 nM, 52% and 1500 nM.
For `CC(C)c1ccc2c(c1)OC(C)(C)CCN2c1cccc(N2CC(C(=O)O)C2)c1` [Example 234, 1-[3-(8-isopropyl-2,2-dimethyl-3,4-dihydro-1,5-benzoxazepin-5-yl)phenyl]azetidine-3-carboxylic acid] the same measures were 64 to 68 °C, 95%, 1710 nM, 81% and 2260 nM.
In turn, `CCc1ccc2c(c1)OC(C)(C)CN2c1cccc(N2CC(C(=O)[O-])C2)c1.[Na+]` [Example 235, sodium 1-[3-(7-ethyl-2,2-dimethyl-3H-1,4-benzoxazin-4-yl)phenyl]azetidine-3-carboxylate] returned a melting point of 160 to 188 °C. For the same compound, at NURR-1/RXRα, the Emax was 102% and the EC50 is 92 nM. In addition, at NURR-1/RXRγ, the Emax turned out to be 107% and the EC50 was 174 nM.
`COc1cc(N2CC(C(=O)O)C2)cc(N2CC(C)(C)Oc3cc(C(F)(F)F)ccc32)c1` [Example 236, 1-[3-[2,2-dimethyl-7-(trifluoromethyl)-3H-1,4-benzoxazin-4-yl]-5-methoxyphenyl]azetidine-3-carboxylic acid] gave a melting point of 70 to 75 °C. In addition, at NURR-1/RXRα, the Emax is 93% and the EC50 came out at 21 nM. On NURR-1/RXRγ, the Emax stood at 98% and the EC50 worked out at 63 nM.
The corresponding values for `Cc1ccc(N2CC(C(=O)O)C2)cc1N1CC(C)(C)Oc2cc(C(F)(F)F)ccc21` [Example 237, 1-[3-[2,2-dimethyl-7-(trifluoromethyl)-3H-1,4-benzoxazin-4-yl]-4-methylphenyl]azetidine-3-carboxylic acid] are 74 to 83 °C, 82%, 57 nM, 77% and 257 nM.
For `Cc1c(N2CC(C(=O)O)C2)cccc1N1CC(C)(C)Oc2cc(C(F)(F)F)ccc21` [Example 238] the same measures were 168 to 171 °C, 86%, 103 nM, 82% and 154 nM.
For the compound `Cc1ccc(N2CC(C)(C)Oc3cc(C(F)(F)F)ccc32)cc1N1CC(C(=O)O)C1` [Example 239, 1-[5-[2,2-dimethyl-7-(trifluoromethyl)-3H-1,4-benzoxazin-4-yl]2-methylphenyl]azetidine-3-carboxylic acid], the melting point was 96 to 99 °C. Also, at NURR-1/RXRα, the Emax stood at 118% and the EC50 amounted to 234 nM. For the same compound, at NURR-1/RXRγ, the Emax was found to be 102% and the EC50 worked out at 6110 nM.
The corresponding values for `CC1(C)CN(c2cccc(N3CC(C(=O)[O-])C3)c2)c2ncc(C(F)(F)F)cc2O1.[Na+]` [Example 241, sodium 1-[3-[2,2-dimethyl-7-(trifluoromethyl)-3H-pyrido[3,2-b][1,4]oxazin-4-yl]phenyl]-azetidine-3-carboxylate] are 123 to 139 °C, 100%, 110 nM, 107% and 194 nM.
`CC1(C)CN(c2cccc(N3CC(C(=O)[O-])C3)c2)c2cnc(C(F)(F)F)cc2O1.[Na+]` [Example 242, sodium 1-[3-[2,2-dimethyl-7-(trofluoromethyl)-3H-pyrido[4,3-b][1,4]ozaxin-4-yl]phenyl]azetidine-3-carboxylate] gave a melting point of 149 to 155 °C. Further, at NURR-1/RXRα, the Emax worked out at 84% and the EC50 was found to be 227 nM. On NURR-1/RXRγ, the Emax was found to be 76% and the EC50 was 299 nM.
`CC1(C)Cc2cc(Cl)ccc2N(c2cccc(N3CC(C(=O)[O-])C3)c2)C1.[Na+]` [Example 243, sodium 1-[3-(6-chloro-3,3-dimethyl-2,4-dihydroquinolin-1-yl)phenyl]azetidine-3-carboxylate] showed a melting point of 70 to 80 °C. Besides, at NURR-1/RXRα, the Emax was determined as 83% and the EC50 was 58 nM. Besides, on NURR-1/RXRγ, the Emax was found to be 89% and the EC50 was 34 nM.
For `CC(C)CC1Oc2cc(C(F)(F)F)ccc2N(c2cccc(N3CC(C(=O)O)C3)c2)C1=O` (stereo not drawn) [Example 246, 1-[3-[2-isobutyl-3-oxo-7-(trifluoromethyl)-1,4-benzoxazin-4-yl]phenyl]azetidine-3-carboxylic acid] the same measures were 86 to 96 °C, 96%, 13 nM, 94% and 53 nM.
`CCC1(CC)Oc2cc(C(F)(F)F)ccc2N(c2cccc(N3CC(C(=O)O)C3)c2)C1=O` [Example 247, 1-[3-[2,2-diethyl-3-oxo-7-(trifluoromethyl)-1,4-benzoxazin-4-yl]phenyl]azetidine-3-carboxylic acid]: the melting point fell in the range of 73 to 85 °C. For the same compound, on NURR-1/RXRα, the Emax was found to be 100% and the EC50 came to 19 nM. Further, on NURR-1/RXRγ, the Emax came out at 92% and the EC50 stood at 43 nM.
The corresponding values for `CC(C)C1Oc2cc(C(F)(F)F)ccc2N(c2cccc(N3CC(C(=O)O)C3)c2)C1=O` (stereo not drawn) [Example 248, 1-[3-[2-isopropyl-3-oxo-7-(trifluoromethyl)-1,4-benzoxazin-4-yl]phenyl]azetidine-3-carboxylic acid] are 78 to 87 °C, 105%, 22 nM, 92% and 313 nM.
The corresponding values for `Cc1ccc2c(c1)OC(C)(C)C(=O)N2c1cccc(N2CC(C(=O)O)C2)c1` [Example 249, 1-[3-(2,2,7-trimethyl-3-oxo-1,4-benzoxazin-4-yl)phenyl]azetidine-3-carboxylic acid] are 78 to 91 °C, 95%, 245 nM, 83% and 548 nM.
For `CC1(C)Oc2cc(C(C)(C)C)ccc2N(c2cccc(N3CC(C(=O)[O-])C3)c2)C1=O.[Na+]` [Example 250, sodium 1-[3-(7-tert-butyl-2,2-dimethyl-3-oxo-1,4-benzoxazin-4-yl)phenyl]azetidine-3-carboxylate] the same measures were 178 to 198 °C, 98%, 289 nM, 83% and 288 nM.
On to `CC(C)c1ccc2c(c1)OC(C)(C)C(=O)N2c1cccc(N2CC(C(=O)O)C2)c1` [Example 251, 1-[3-(7-isopropyl-2,2-dimethyl-3-oxo-1,4-benzoxazin-4-yl)phenyl]azetidine-3-carboxylic acid], for which the melting point fell in the range of 104 to 108 °C. Further, on NURR-1/RXRα, the Emax amounted to 93% and the EC50 came to 514 nM. Besides, on NURR-1/RXRγ, the Emax turned out to be 88% and the EC50 turned out to be 766 nM.
As to `O=C(O)C1CN(c2cccc(N3C(=O)COc4cc(C(F)(F)F)ccc43)c2)C1` [Example 252, 1-[3-[3-oxo-7-(trifluoromethyl)-1,4-benzoxazin-4-yl]phenyl]azetidine-3-carboxylic acid], the melting point was in the range of 195 to 199 °C. Besides, at NURR-1/RXRα, the Emax was 105% and the EC50 was determined as 719 nM. Further, on NURR-1/RXRγ, the Emax is 96% and the EC50 amounted to 2090 nM.
Consider `CCC1(CC)CN(c2cccc(N3CC(C(=O)O)C3)c2)c2ccc(C(F)(F)F)cc21` [Example 255, 1-[3-[3,3-diethyl-5-(trifluoromethyl)indolin-1-yl]phenyl]azetidine-3-carboxylic acid], for which the melting point is 83 °C. Also, on NURR-1/RXRα, the Emax was found to be 104% and the EC50 amounted to 18 nM. On NURR-1/RXRγ, the Emax stood at 103% and the half-maximal effective concentration (EC50) came to 44 nM.
For `CCC1(CC)C(=O)N(c2cccc(N3CC(C(=O)O)C3)c2)c2ccc(C(F)(F)F)cc21` [Example 258, 1-[3-[3,3-diethyl-2-oxo-5-(trifluoromethyl)indolin-1-yl]phenyl]azetidine-carboxylic acid] the same measures were 159 to 161 °C, 102%, 236 nM, 107% and 755 nM.
For `CC1(C)Cc2cc(C(F)(F)F)ccc2N(c2cccc(N3CC(C(=O)O)C3)c2)C1=O` [Example 259, 1-[3-[3,3-dimethyl-2-oxo-6-(trifluoromethyl)-4H-quinolin-1-yl]phenyl]azetidine-3-carboxylic acid] the same measures were 96 to 100 °C, 95%, 101 nM, 98% and 349 nM.
